In patent publication US20190085334A1, “TREATMENT OF NEUROINFLAMMATION IN NEUROLOGICAL DISORDERS” (Board of Trustees of Michigan State University, priority 2017, published 2019):

How the values were obtained:
[1] = tested on: SLAMF7 expression on monocytes; assay: SLAMF7 expression on PBMCs and monocytes by flow cytometry; type: cell-based, human
Description: (§1) Cells are plated at 3×10^5 cells/well for PBMC and isolated monocyte experiments, and 1×10^5 cell/well for isolated neutrophil experiments, in 96-well plates. Cells are cultured in complete RPMI (RPMI 1640, 10% FBS, 1×PSF). For cross-linking experiments 10 μg/mL anti-SLAMF7 mAb or SLAMF7-Fc is added to a sterile, high-binding 96-well cell culture plate O/N at 4° C. For all in vitro flow cytometry experiments, cells are cultured in the presence of stimuli for 17-18 h. In the monocyte maturation assay as shown in FIG. 18E the cells are stimulated with only 25 IU/mL IFNα for exactly 24 h. Small molecule inhibitors are added 45-60 min before IFNα for all relevant experiments. For experiments involving intracellular staining, BD GolgiPlug is added for the final 5 h. NK92 cells are purchased from ATCC and cultured as indicated by manufacturer.
(§2) Cells are prepared and stained as previously described. Intracellular staining is performed using the BD fixation/permeabilization kit (BD Biosciences) per manufacturer's instructions. Transcription factor staining is performed with the Transcription Factor Buffer Set (BD Pharmingen) per manufacturer's instructions. Samples are analyzed on either a BD LSR II or BD FACSCanto. LIVE/DEAD staining with Aqua fixable stain (ThermoFisher) is included during initial experiments and cell viability is verified to be greater than 90%.

[2] = tested on: CXCL10 production from monocytes; assay: CXCL10 production from interferon-stimulated monocytes, intracellular staining on flow cytometry; type: cell-based, human
Description: as §1, §2

CXCL10 = target: T1, CXCL10 (Homo sapiens, UniProt P02778); details: monoclonal antibodies to reduce CXCL10; cited from earlier work
T1 sequence (P02778 22-98): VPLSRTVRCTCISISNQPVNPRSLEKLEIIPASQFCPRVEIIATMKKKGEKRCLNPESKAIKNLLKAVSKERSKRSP

isolated neutrophils = assay: Cytokine/chemokine release from isolated neutrophils, BioPlex assay; type: cell-based, human
Description: as §1
For analysis of cell culture, supernatant and plasma samples 80 μL of media or plasma is used, undiluted, and the assay is run per manufacturer's instructions (Bio-Rad, Hercules, Calif.) via Luminex 100 technology. […]
(§3) CD14^+ monocytes are isolated from PBMCs via positive selection using CD14 Microbeads (Miltenyi Biotec) per manufacturer's instructions. Purity is consistently greater than 90% as assessed by flow cytometry. […] Purity is consistently greater than 98% as assessed by flow cytometry.

[3] = tested on: SLAMF7 expression on neutrophils; assay: SLAMF7 expression on neutrophils by flow cytometry; type: cell-based, human; details: presence and absence of IFNα stimulation
Description: as §1
Cells are prepared and stained as previously described. Intracellular staining is performed using the BD fixation/permeabilization kit (BD Biosciences) per manufacturer's instructions. […] Samples are analyzed on either a BD LSR II or BD FACSCanto. […]
as §3

isolated monocytes = assay: qRT-PCR of chemokine and ISG mRNA in isolated monocytes; type: cell-based, human; details: IFNα and SLAMF7 cross-linking; SHP1/2 inhibitor 10 μM
Description: Isolated monocytes are plated in 96-well plates at 3×10^5 cells/well and stimulated as indicated for 4 h. Cells are harvested and placed into Trizol (ThermoFisher) and RNA is isolated per manufacturer's instructions. RNA is reverse transcribed with SuperStrand First Strand Synthesis Kit III (Invitrogen) per manufacturer's instructions and analyzed on a QuantStudio7 system (ThermoFisher). GAPDH is used as a housekeeping gene and the ΔΔCt method is used for analysis.

[4] = SLAMF7-stimulated cells, IFNα, 100 nM

Molecule: O=C(/C=C/c1ccc(CN(CCO)CCc2c[nH]c3ccccc23)cc1)NO [Dacinostat]
- IFNα-mediated SLAMF7 up-regulation ([1]; classical monocytes, IFNα plus HDACi): prevents IFNα-mediated SLAMF7 up-regulation

Molecule: CC(C)(C)C(=O)Nc1ccc2c(c1)C(=O)C(=O)c1ccccc1-2 [CAS 345630-40-2]
- rescue of CXCL10 production ([2]; IFNα and SLAMF7 cross-linking, pre-treatment 1 μM): fails to rescue CXCL10 production

Molecule: BMS-936557: anti-CXCL10 monoclonal antibody (Brisol-Myers Squibb)
- anti-inflammatory activity (CXCL10): limited anti-inflammatory activity

Molecule: IFNα
- CXCL10 release from neutrophils (isolated neutrophils; IFNα by itself, neutrophils from HCs and HIV+ patients): can induce CXCL10 release
- SLAMF7 response of CD14+ monocytes ([1]; CD14+ monocytes, IFNα 100 IU/mL): most robust SLAMF7 response
- percent of SLAMF7+ PBMCs ([1]; total PBMCs from HIV+ patients, IFNα 100 IU/mL): minor, but significant increase
- SLAMF7 expression on neutrophils [3]: unable to upregulate SLAMF7

Molecule: lipopolysaccharide [LPS]
- CXCL10 release from neutrophils (isolated neutrophils; LPS added to IFNα): enhanced

Molecule: CC(C)CCC[C@@H](C)[C@H]1CC[C@H]2[C@@H]3CCC4C[C@H](N)CC[C@]4(C)[C@H]3CC[C@]12C (some centres unmarked) [3AC]
- recovery of CXCL10 expression ([2]; monocytes stimulated with IFNα and SLAMF7 cross-linking, pre-treatment 5 μM): does not result in recovery of CXCL10 expression

Molecule: O=S(=O)(O)c1ccc2cc(N=Nc3cc(S(=O)(=O)O)c4cccnc4c3O)ccc2c1 [NSC87877]
- recovery of CXCL10 expression ([2]; monocytes stimulated with IFNα and SLAMF7 cross-linking, pre-treatment 10 μM): does not result in recovery of CXCL10 expression
- involvement of SHP1/2 in alpha chemokine inhibition (isolated monocytes): not involved in alpha chemokine inhibition

Molecule: CC(C)C[C@H](NC(=O)[C@H](Cc1ccccc1)NC(=O)c1cnccn1)B(O)O [Bortezomib]
- CXCL10 production [2, 4]: further decreases CXCL10 production
- recovery of CXCL10 expression [2, 4]: does not result in recovery of CXCL10 expression
- SLAMF7 expression on monocytes ([1]; with IFNα, 100 nM): acts synergistically with IFNα to upregulate SLAMF7 expression
